Legend:
Assay in all cases: combination Emax (second highest fraction inhibited in the dose matrix, 72 h); higher = more inhibition; extreme values may be limits of the assay
A704 (Kidney Carcinoma) = system: A704 (Kidney Carcinoma)
Outline: (§1)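 Cell lines in DMEM/F12 or RPMI with 10% FBS were plated in 1536-well plates, held 24 hours at 37°C, 5% CO2, then given two-drug dose matrices for 72 hours (DMSO typically 0.2%). Viability was read by CellTiter-Glo 2.0 luminescence and scaled as inhibition from 0 (vehicle wells) to 1 (blank wells). Combination Emax is the second-highest inhibition in the matrix; Bliss excess is observed combination effect minus expected EA + EB − EA·EB, EA and EB being single-agent effects.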

BT-20 (Breast Carcinoma) = system: BT-20 (Breast Carcinoma)
Outline: as §1

[1] = system: EBC-1 (Squamous Cell Lung Carcinoma)
Outline: as §1

GOTO (Neuroblastoma) = system: GOTO (Neuroblastoma)
Outline: as §1

[2] = system: HC-1 (Other Blood Carcinomas)
Outline: as §1

[3] = system: HuP-T3 (Pancreatic Carcinoma)
Outline: as §1

[4] = system: KLE (Endometrial Carcinoma)
Outline: as §1

[5] = system: KU-19-19 (Bladder Carcinoma)
Outline: as §1

[6] = system: LOU-NH91 (Squamous Cell Lung Carcinoma)
Outline: as §1

[7] = system: NCI-H322M (Lung Adenocarcinoma)
Outline: as §1

NH-12 (Neuroblastoma) = system: NH-12 (Neuroblastoma)
Outline: as §1

[8] = system: PF-382 (T-Lymphoblastic Leukemia)
Outline: as §1

RPMI-7951 (Melanoma) = system: RPMI-7951 (Melanoma)
Outline: as §1

U-87-MG (Glioblastoma) = system: U-87-MG (Glioblastoma)
Outline: as §1

[9] = system: HSC-2 (Oral Cavity Carcinoma)
Outline: as §1

[10] = system: KINGS-1 (Low Grade Glioma)
Outline: as §1

NB7 (Neuroblastoma) = system: NB7 (Neuroblastoma)
Outline: as §1

[11] = system: OCUB-M (Breast Carcinoma)
Outline: as §1

[12] = system: TGBC11TKB (Gastric Carcinoma)
Outline: as §1

[13] = system: VMRC-LCD (Lung Adenocarcinoma)
Outline: as §1

Row | Structure (SMILES) | combination Emax (A704 (Kidney Carcinoma)) | combination Emax (BT-20 (Breast Carcinoma)) | combination Emax [1] | combination Emax (GOTO (Neuroblastoma)) | combination Emax [2] | combination Emax [3] | combination Emax [4] | combination Emax [5] | combination Emax [6] | combination Emax [7] | combination Emax (NH-12 (Neuroblastoma)) | combination Emax [8] | combination Emax (RPMI-7951 (Melanoma)) | combination Emax (U-87-MG (Glioblastoma)) | combination Emax [9] | combination Emax [10] | combination Emax (NB7 (Neuroblastoma)) | combination Emax [11] | combination Emax [12] | combination Emax [13]
1 | COc1nnc2ccc(N3CCC(c4ccc(OCCN5CCN(C)C(=O)[C@H]5C)cc4)CC3)nn12 [AZD5153] + CN(CC[C@H](CSC1=CC=CC=C1)NC2=C(C=C(C=C2)S(=O)(=O)NC(=O)C3=CC=C(C=C3)N4CCC(CC4)[C@H](C5=CC=CC=C5C6=CC=C(C=C6)Cl)O)S(=O)(=O)C(F)(F)F)CCO [AZD4320] (first compound max 1 µM, 7x7, partner max 1 µM) | 0.768 | 0.293 | 1 | 0.858 | 0.695 | 0.512 | 0.792 | 0.755 | 0.781 | 0.563 | 0.91 | 1 | 0.647 | 0.625 |  |  |  |  |  | 
2 | CN(CCO)CC[C@H](CSc1ccccc1)Nc1ccc(S(=O)(=O)NC(=O)c2ccc(N3CCC([C@@H](O)c4ccccc4-c4ccc(Cl)cc4)CC3)cc2)cc1S(=O)(=O)C(F)(F)F [AZD4320] + CN(C)CCCOc1ccc(-c2ccc3ncc4c(c3c2)n(C2CCOCC2)c(=O)n4C)cn1 [AZD0156] (first compound max 1 µM, 7x7, partner max 1 µM) | 0.496 | 0.411 | 0.944 | 0.481 | 0.424 |  | 0.266 | 0.098 | 0.476 | 0.172 | 0.909 | 0.98 | 0.333 | 0.165 | 0.269 | 0.588 | 0.108 | 0.516 | 0.258 | 0.0958
3 | CN(C)CCCOc1ccc(-c2ccc3ncc4c(c3c2)n(C2CCOCC2)c(=O)n4C)cn1 [AZD0156] + CCN(CCO)CCCOc1ccc2c(Nc3cc(CC(=O)Nc4cccc(F)c4)[nH]n3)ncnc2c1 [AZD2811] (first compound max 1 µM, 7x7, partner max 1 µM) | 0.156 | 0.198 | 0.171 | 0.649 | 0.379 | 0.0599 | 0.334 | 0.349 | 0.208 | 0.123 | 0.674 | 0.823 | 0.257 |  | 0.289 | 0.167 | 0.276 | 0.727 | 0.325 | 0.545
4 | C[C@@H](c1ccc2nccn2c1)n1nnc2ncc(-c3cnn(C)c3)nc21 [Savolitinib] + CN(CC[C@H](CSC1=CC=CC=C1)NC2=C(C=C(C=C2)S(=O)(=O)NC(=O)C3=CC=C(C=C3)N4CCC(CC4)[C@H](C5=CC=CC=C5C6=CC=C(C=C6)Cl)O)S(=O)(=O)C(F)(F)F)CCO [AZD4320] (first compound max 1 µM, 7x7, partner max 1 µM) | 0.449 | 0.418 | 1 | 0.495 | 0.546 | 0.203 | 0.216 | 0.194 | 0.334 | 0.0979 | 0.824 | 0.993 | 0.271 | 0.259 |  |  |  |  |  | 
5 | Cc1cc2ncnn2cc1Nc1ncc2c(n1)n(C1CCOCC1)c(=O)n2C [AZD7648] + CN(C)CCCOc1ccc(-c2ccc3ncc4c(c3c2)n(C2CCOCC2)c(=O)n4C)cn1 [AZD0156] (first compound max 10 µM, 7x7, partner max 1 µM) | 0.215 | 0.413 | 0.218 | 0.163 | 0.386 | 0.141 | 0.36 | 0.212 | 0.279 | 0.368 | 0.153 | 0.478 | 0.396 |  | 0.398 | 0.3 | 0.213 | 0.4 | 0.247 | 0.253
6 | COc1cccc(OCCCN)c1-c1cc(Nc2cnc(C#N)cn2)n[nH]1 [Prexasertib] + CN(C)CCCOc1ccc(-c2ccc3ncc4c(c3c2)n(C2CCOCC2)c(=O)n4C)cn1 [AZD0156] (first compound max 1 µM, 7x7, partner max 1 µM) | 0.485 | 0.626 | 0.545 | 0.908 | 1 | 0.7 | 0.471 | 0.865 | 0.445 | 0.982 | 0.918 | 0.9 | 0.953 |  | 0.776 | 0.528 | 0.858 | 0.574 | 0.963 | 0.751
7 | Cc1c2c(nn1C)CSCc1cc(n(C)n1)CSc1cc(c3ccccc3c1)OCCCc1c(C(=O)O)n(C)c3c-2c(Cl)ccc13 [AZD5991] + C[C@@H]1COCCN1C2=NC(=NC(=C2)C3(CC3)[S@](=N)(=O)C)C4=C5C=CNC5=NC=C4 [AZD6738] (first compound max 1 µM, 7x7, partner max 10 µM) | 0.487 |  | 0.491 | 0.92 | 0.926 | 0.666 | 0.483 | 0.767 | 0.426 | 0.94 | 0.901 | 0.929 | 0.98 | 0.494 | 0.765 | 0.198 | 0.918 | 1 | 0.889 | 0.559
8 | COc1cccc(OCCCN)c1-c1cc(Nc2cnc(C#N)cn2)n[nH]1 [Prexasertib] + O=C(c1cc(Cc2n[nH]c(=O)c3ccccc23)ccc1F)N1CCN(C(=O)C2CC2)CC1 [Olaparib] (first compound max 1 µM, 7x7, partner max 10 µM) | 0.421 | 0.799 | 0.603 | 0.858 | 1 | 0.695 | 0.431 | 0.886 | 0.573 | 0.83 | 0.893 | 0.897 | 0.974 |  | 0.782 | 0.405 | 0.749 | 0.701 | 0.952 | 0.679
9 | COc1cc2c(cc1OCCCCCOc1cc3c(cc1OC)C(=O)N1C=C(C)C[C@H]1C=N3)N=C[C@@H]1CC(C)=CN1C2=O [SG3199] + O=C(c1cc(Cc2n[nH]c(=O)c3ccccc23)ccc1F)N1CCN(C(=O)C2CC2)CC1 [Olaparib] (first compound max 0.001 µM, 7x7, partner max 10 µM) | 0.202 | 0.154 | 0.183 | 0.522 | 0.498 | 0.112 | 0.184 | 0.247 | 0.175 | 0.256 | 0.319 | 0.259 | 0.203 |  | 0.116 | 0.147 | 0.166 | 0.232 | 0.3 | 0.0613
10 | Cc1cc2ncnn2cc1Nc1ncc2c(n1)n(C1CCOCC1)c(=O)n2C [AZD7648] + O=C(c1cc(Cc2n[nH]c(=O)c3ccccc23)ccc1F)N1CCN(C(=O)C2CC2)CC1 [Olaparib] (first compound max 10 µM, 7x7, partner max 10 µM) | 0.226 | 0.313 | 0.202 | 0.525 | 0.521 | 0.12 | 0.419 | 0.251 | 0.186 | 0.325 | 0.317 | 0.49 | 0.303 |  | 0.228 | 0.189 | 0.219 | 0.256 | 0.269 | 0.0108
11 | CCN(CCO)CCCOc1ccc2c(Nc3cc(CC(=O)Nc4cccc(F)c4)[nH]n3)ncnc2c1 [AZD2811] + O=C(c1cc(Cc2n[nH]c(=O)c3ccccc23)ccc1F)N1CCN(C(=O)C2CC2)CC1 [Olaparib] (first compound max 1 µM, 7x7, partner max 10 µM) | 0.188 | 0.286 | 0.216 | 0.654 | 0.681 | 0.163 | 0.16 | 0.381 | 0.332 | 0.182 | 0.659 | 0.893 | 0.328 |  | 0.439 | 0.241 | 0.473 | 0.805 | 0.408 | 0.545
12 | Cc1cc2ncnn2cc1Nc1ncc2c(n1)n(C1CCOCC1)c(=O)n2C [AZD7648] + CCN(CCO)CCCOc1ccc2c(Nc3cc(CC(=O)Nc4cccc(F)c4)[nH]n3)ncnc2c1 [AZD2811] (first compound max 10 µM, 7x7, partner max 1 µM) | 0.247 | 0.426 | 0.18 | 0.491 | 0.737 | 0.161 | 0.382 | 0.489 | 0.37 | 0.352 | 0.667 | 0.851 | 0.476 |  | 0.547 | 0.353 | 0.406 | 0.764 | 0.327 | 0.619
13 | CN(C)CCCOc1ccc(-c2ccc3ncc4c(c3c2)n(C2CCOCC2)c(=O)n4C)cn1 [AZD0156] + C[C@@H]1COCCN1C2=NC(=NC(=C2)C3(CC3)[S@](=N)(=O)C)C4=C5C=CNC5=NC=C4 [AZD6738] (first compound max 1 µM, 7x7, partner max 10 µM) | 0.392 | 0.449 | 0.535 | 0.913 | 0.77 | 0.658 | 0.469 | 0.869 | 0.236 | 0.922 | 0.901 | 0.855 | 0.886 |  | 0.696 | 0.25 | 0.804 | 0.494 | 0.799 | 0.534

From the supplement of paper PMC11061612
